Test results reported in patent US5344952A, “Fluoroketone enzyme inhibitors” (priority 1993, dated 1994).

Tests used:
[1] = target: T1, Rabbit Liver Esterase (E.C. 3.1.1.1) (Oryctolagus cuniculus, UniProt P12337); assay: Inhibition constant, rabbit liver esterase (o-nitrophenylbutyrate hydrolysis); format: biochemical; settings: RLE; 50 mM Tris pH=8.0; 20 min incubation at ambient temperature; substrate o-nitro-phenylbutrate
T1 construct: from tissue; host or cells: liver
T1 sequence (P12337 19-565): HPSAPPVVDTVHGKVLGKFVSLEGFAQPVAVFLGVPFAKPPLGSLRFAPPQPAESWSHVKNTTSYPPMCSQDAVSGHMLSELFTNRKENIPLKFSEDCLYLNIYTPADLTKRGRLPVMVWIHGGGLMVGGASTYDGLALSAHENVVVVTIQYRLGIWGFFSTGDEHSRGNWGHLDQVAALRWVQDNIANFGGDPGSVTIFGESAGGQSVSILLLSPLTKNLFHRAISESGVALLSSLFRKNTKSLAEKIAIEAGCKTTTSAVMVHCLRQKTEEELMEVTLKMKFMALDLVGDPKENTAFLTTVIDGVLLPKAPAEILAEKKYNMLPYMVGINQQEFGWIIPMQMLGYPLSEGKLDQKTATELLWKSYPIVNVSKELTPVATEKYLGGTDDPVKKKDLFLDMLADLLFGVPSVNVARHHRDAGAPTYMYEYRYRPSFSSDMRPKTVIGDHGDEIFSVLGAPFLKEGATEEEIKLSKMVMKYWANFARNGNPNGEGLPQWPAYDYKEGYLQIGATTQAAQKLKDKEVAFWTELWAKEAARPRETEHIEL
Procedure: Inhibition constants were measured in 50 mM Tris pH=8.0. Enzyme and inhibitor were incubated at ambient temperature for 20 minutes. Substrate for the enzyme was then added and the rate of hydrolysis was followed spectrophotometrically. The substrate for PLE and RLE was o-nitro-phenylbutrate and for AChE was acetyl thiocholine and Ellman's reagent.

RLE = assay: Sandwich assay for Adenovirus, free inhibitor added to control wells (RLE, o-nitrophenyl butyrate); format: biochemical, rabbit; settings: control wells having no antigen; 5×10^-9 M RLE, 50 mM TRIS pH 8.5, 1 mM o-nitrophenyl butyrate; color without inhibitor in ca 15 minutes
Procedure: A polyvinyl chloride microtiter plate was coated with anit-adenovirus antibody by incubating the plate for 1 hour at 37° C. in a 1:900 dilution of 4.5 mg/mL stock solution of the antibody in a 10 mM carbonate 20 mM ethylenediaminetetraacetic acid (EDTA) buffer. The plate was washed 3 times with a wash buffer solution consisting of 0.5% casein in 10 mM TRIS and 154 mM NaCl at pH 7.6. Adenovirus infected HeLa cells diluted to ca 1×10^5 plaque forming units (PFU)/ml in pH 7.4 phosphate buffered-saline containing 0.05% polyoxyethylenesorbitan monolaurate, 0.1 mg/ML gentamicin, 0.5% phenol red, 0.1% bovine serum albumin, 10 mM EDTA and 100 mM ethylene bis(oxyethylenenitrilo) tetraacetic acid were serially diluted in 2-fold steps across the plate. The plate was incubated-as above to bind the cells to the antibody, washed with wash buffer, incubated with a 0.005 mg/mL tracer solution of anti-adenovirus conjugated to alkaline phosphatase in wash buffer containing 0.5% gelatin and 10% inactivated fetal calf serum. Excess tracer solution was decanted and the plate was washed 3 times with TRIS buffer (without casein). A mixture of a 1×10^-4 M solution of the blocked inhibitor from Example I and 5×10^-9 M RLE in 50 mM TRIS buffer, pH 8.5, was added and the plate was incubated at room temperature for 10 minutes. o-Nitrophenyl butyrate (1 mM) was then added to each well of the plate. […]

| SMILES | Ki [1] [nM] | color formation in control wells on addition of free inhibitor (RLE) |
| --- | --- | --- |
| O=C(/C=C/c1cccc(O)c1)C(F)(F)F [1,1,1-trifluoro-4-(3-hydroxyphenyl)-3-trans-buten-2-one] | 160 |  |
| O=C(CCc1ccc(O)cc1)C(F)(F)F [1,1,1-Trifluoro-4-(4-hydroxyphenyl)-2-butanone] |  | inhibited color formation for longer periods |
